From ChEMBL document CHEMBL1134827, “Design and synthesis of novel 2,3-dihydro-1H-isoindoles with high affinity and selectivity for the dopamine D3 receptor” (Bioorg Med Chem Lett, 2001) come the findings set out here.

One data set has as its target D(2) dopamine receptor (Homo sapiens, UniProt P14416). In words: Displacement of [125I]iodosulpiride from human Dopamine receptor D2 expressed in CHO cells. The format is cell-based.
The target of another data set is D(3) dopamine receptor (Homo sapiens, UniProt P35462). In words: Displacement of [125I]iodosulpiride from human Dopamine receptor D3 expressed in CHO cells. It counts as cell-based. On the technique in general: Loss of bound radioactivity is the signal in a displacement assay; it reports binding, not function.
D(3) dopamine receptor, sequence (P35462 whole entry): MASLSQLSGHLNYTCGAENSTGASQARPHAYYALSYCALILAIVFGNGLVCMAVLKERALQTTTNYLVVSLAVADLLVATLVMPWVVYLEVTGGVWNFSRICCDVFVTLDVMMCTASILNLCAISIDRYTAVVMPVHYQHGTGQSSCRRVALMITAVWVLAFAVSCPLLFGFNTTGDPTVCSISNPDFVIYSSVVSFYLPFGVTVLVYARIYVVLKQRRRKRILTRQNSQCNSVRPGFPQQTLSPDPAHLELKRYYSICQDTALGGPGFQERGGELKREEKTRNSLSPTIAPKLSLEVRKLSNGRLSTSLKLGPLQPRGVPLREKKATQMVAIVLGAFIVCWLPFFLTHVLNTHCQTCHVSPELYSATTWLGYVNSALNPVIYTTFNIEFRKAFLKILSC
The target in data set [1] is T1, 5-hydroxytryptamine receptor 1A (Homo sapiens, UniProt P08908).
T1 sequence (P08908 whole entry): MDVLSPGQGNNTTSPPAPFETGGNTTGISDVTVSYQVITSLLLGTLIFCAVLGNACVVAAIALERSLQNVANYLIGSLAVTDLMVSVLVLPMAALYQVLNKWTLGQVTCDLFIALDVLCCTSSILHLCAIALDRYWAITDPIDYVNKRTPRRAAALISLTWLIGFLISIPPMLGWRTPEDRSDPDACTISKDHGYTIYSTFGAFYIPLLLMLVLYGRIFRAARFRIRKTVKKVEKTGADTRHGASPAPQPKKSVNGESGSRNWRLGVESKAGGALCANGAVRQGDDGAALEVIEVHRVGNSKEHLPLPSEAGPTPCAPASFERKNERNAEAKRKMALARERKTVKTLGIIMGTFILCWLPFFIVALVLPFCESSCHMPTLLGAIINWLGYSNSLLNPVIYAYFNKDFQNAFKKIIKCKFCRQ
In words: Evaluated for the binding affinity to 5-hydroxytryptamine 1A receptor.

Data set [2] addresses 5-hydroxytryptamine receptor 1B (Homo sapiens, UniProt P28222). In words: Evaluated for the binding affinity to 5-hydroxytryptamine 1B receptor.
The target of data set [3] is 5-hydroxytryptamine receptor 2A (Homo sapiens, UniProt P28223). In words: Evaluated for the binding affinity towards 5-hydroxytryptamine 2A receptor.
5-hydroxytryptamine receptor 2A, sequence (P28223 whole entry): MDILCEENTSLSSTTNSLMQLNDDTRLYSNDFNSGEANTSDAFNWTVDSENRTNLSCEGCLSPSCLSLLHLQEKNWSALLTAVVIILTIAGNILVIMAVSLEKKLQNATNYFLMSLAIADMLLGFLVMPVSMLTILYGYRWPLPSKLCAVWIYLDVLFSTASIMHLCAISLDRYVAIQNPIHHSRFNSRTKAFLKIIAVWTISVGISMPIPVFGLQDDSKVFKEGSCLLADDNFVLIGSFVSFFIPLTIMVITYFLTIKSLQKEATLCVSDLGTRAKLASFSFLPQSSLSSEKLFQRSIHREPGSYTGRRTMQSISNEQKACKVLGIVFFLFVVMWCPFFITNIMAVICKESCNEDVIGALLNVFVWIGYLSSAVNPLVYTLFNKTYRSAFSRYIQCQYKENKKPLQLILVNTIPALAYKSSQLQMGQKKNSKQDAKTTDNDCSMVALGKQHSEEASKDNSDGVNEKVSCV
The target in data set [4] is 5-hydroxytryptamine receptor 2B (Homo sapiens, UniProt P41595). In words: Evaluated for the binding affinity to 5-HT 2B receptor.
5-hydroxytryptamine receptor 2B, sequence (P41595 whole entry): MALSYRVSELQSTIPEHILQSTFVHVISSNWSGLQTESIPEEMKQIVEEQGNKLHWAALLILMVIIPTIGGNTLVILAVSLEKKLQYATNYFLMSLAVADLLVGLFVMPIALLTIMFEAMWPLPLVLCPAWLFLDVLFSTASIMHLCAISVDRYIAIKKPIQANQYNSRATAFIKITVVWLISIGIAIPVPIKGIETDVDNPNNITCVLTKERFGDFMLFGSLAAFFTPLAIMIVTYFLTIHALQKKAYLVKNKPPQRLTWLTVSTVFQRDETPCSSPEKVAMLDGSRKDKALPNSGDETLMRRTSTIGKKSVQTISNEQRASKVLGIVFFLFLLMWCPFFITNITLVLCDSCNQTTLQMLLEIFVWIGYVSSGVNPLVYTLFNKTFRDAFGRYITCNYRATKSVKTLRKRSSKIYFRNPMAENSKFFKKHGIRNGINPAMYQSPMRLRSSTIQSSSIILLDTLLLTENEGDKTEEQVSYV
In data set [5] the target is 5-hydroxytryptamine receptor 7 (Homo sapiens, UniProt P34969). In words: Evaluated for the binding affinity to 5-hydroxytryptamine 7 receptor.
5-hydroxytryptamine receptor 7, sequence (P34969 whole entry): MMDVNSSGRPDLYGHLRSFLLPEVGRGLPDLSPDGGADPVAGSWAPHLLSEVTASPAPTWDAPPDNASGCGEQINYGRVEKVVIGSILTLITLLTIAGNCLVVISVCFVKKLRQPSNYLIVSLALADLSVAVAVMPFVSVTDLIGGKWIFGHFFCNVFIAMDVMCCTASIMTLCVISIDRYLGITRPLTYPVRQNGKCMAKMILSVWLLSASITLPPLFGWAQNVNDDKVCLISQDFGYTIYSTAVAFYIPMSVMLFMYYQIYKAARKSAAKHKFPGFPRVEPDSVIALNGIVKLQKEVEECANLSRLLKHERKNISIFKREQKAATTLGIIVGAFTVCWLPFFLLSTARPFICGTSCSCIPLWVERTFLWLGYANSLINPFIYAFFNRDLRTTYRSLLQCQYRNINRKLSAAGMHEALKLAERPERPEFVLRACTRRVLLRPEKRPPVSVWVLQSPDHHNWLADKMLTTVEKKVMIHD
Data set [6] concerns the target T2, 5-hydroxytryptamine receptor 2C (Homo sapiens, UniProt P28335).
T2 sequence (P28335 whole entry): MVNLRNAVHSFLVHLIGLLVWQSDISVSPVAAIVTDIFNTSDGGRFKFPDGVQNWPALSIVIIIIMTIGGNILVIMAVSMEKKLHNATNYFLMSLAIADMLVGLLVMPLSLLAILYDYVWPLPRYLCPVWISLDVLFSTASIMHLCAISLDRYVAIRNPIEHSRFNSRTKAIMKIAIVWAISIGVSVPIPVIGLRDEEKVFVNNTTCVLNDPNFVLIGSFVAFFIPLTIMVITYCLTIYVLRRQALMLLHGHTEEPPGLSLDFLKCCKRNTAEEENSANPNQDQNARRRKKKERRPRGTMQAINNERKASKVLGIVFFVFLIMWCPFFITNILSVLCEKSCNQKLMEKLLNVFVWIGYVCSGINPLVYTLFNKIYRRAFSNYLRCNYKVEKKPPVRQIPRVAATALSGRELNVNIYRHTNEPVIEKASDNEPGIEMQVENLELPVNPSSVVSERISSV
In words: Evaluated for the binding affinity to 5-hydroxytryptamine 2C receptor.

Data set [7] concerns the target 5-hydroxytryptamine receptor 6 (Homo sapiens, UniProt P50406). In words: Evaluated for the binding affinity towards 5-hydroxytryptamine 6 receptor.
Data set [8] is described as follows: Evaluated for the low clearance in rat (in vivo). Conditions: blood, read-out: CLb. The format is ADME, organism-based.
A short description of data set [9]: Evaluated for the half life in rat (in vivo). It counts as ADME, organism-based.
A short description of data set [10]: Evaluated for the bioavailability in rat (in vivo). The format is ADME, organism-based.
Data set [11] deals with T3, Alpha-1B adrenergic receptor (Homo sapiens, UniProt P35368).
T3 sequence (P35368 whole entry): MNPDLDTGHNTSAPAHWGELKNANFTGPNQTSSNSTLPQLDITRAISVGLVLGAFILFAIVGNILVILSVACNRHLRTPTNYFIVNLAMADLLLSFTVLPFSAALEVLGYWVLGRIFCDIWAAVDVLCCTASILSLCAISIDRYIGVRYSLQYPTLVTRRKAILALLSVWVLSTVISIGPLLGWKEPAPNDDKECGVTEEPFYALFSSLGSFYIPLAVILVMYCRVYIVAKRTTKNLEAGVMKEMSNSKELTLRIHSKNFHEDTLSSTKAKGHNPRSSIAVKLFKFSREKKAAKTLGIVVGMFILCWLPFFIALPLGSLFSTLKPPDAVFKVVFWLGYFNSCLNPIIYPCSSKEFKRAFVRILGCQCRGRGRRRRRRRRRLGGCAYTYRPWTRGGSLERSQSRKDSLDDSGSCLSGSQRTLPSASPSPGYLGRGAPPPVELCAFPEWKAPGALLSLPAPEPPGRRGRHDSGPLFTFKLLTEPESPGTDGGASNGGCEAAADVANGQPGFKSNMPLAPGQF
In words: Evaluated for the binding affinity to alpha 1B receptor.

In data set [12] the target is D(3) dopamine receptor (Rattus norvegicus) (UniProt P19020). In words: Antagonistic activity at D3 receptor using in vitro functional assay.
D(3) dopamine receptor (Rattus norvegicus), sequence (P19020 whole entry): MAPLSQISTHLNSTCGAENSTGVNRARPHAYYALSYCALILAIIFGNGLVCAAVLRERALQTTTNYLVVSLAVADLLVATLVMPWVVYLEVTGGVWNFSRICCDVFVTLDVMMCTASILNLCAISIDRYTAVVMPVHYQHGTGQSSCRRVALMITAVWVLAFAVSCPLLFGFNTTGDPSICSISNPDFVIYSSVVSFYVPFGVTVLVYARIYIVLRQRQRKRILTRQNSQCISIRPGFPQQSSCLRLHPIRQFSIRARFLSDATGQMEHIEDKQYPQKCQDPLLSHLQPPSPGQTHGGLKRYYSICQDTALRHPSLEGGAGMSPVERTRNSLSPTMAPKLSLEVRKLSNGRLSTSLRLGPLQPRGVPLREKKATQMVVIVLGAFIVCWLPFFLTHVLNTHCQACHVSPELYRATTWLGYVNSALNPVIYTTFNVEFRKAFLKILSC
Data set [13] addresses 5-hydroxytryptamine receptor 1D (Homo sapiens, UniProt P28221). In words: Evaluated for the binding affinity against 5-hydroxytryptamine 1D receptor.

D(2) dopamine receptor, sequence (P14416 whole entry): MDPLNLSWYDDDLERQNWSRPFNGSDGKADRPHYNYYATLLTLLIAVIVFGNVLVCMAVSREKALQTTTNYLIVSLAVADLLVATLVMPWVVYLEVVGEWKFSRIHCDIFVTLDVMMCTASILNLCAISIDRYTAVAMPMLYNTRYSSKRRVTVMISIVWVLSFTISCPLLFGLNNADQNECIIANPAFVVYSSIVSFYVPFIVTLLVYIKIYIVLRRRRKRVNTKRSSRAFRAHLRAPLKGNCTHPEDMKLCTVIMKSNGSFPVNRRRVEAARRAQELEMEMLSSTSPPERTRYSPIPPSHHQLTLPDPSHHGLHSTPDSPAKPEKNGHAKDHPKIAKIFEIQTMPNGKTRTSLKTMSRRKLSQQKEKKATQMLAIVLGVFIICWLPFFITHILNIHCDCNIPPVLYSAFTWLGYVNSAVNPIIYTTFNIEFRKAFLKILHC
5-hydroxytryptamine receptor 1D, sequence (P28221 whole entry): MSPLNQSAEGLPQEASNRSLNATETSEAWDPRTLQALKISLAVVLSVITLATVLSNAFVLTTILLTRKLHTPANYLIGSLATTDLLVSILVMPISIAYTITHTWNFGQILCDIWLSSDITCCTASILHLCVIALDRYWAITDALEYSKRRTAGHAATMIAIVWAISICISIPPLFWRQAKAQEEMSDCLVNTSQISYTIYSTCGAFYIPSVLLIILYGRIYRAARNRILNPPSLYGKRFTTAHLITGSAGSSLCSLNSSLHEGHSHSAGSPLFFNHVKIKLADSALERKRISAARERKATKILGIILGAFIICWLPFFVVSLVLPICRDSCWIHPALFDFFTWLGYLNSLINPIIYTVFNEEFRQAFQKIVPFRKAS
5-hydroxytryptamine receptor 1B, sequence (P28222 whole entry): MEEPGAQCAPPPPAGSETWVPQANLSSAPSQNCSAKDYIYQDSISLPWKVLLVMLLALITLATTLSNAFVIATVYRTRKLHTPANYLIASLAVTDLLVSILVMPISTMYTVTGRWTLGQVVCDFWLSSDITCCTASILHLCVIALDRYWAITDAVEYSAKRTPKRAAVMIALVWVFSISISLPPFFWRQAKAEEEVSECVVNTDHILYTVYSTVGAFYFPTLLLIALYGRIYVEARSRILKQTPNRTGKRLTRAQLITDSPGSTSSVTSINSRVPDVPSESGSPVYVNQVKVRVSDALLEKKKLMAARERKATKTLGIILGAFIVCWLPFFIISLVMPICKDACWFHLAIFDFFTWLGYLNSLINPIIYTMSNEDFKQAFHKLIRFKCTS
5-hydroxytryptamine receptor 6, sequence (P50406 whole entry): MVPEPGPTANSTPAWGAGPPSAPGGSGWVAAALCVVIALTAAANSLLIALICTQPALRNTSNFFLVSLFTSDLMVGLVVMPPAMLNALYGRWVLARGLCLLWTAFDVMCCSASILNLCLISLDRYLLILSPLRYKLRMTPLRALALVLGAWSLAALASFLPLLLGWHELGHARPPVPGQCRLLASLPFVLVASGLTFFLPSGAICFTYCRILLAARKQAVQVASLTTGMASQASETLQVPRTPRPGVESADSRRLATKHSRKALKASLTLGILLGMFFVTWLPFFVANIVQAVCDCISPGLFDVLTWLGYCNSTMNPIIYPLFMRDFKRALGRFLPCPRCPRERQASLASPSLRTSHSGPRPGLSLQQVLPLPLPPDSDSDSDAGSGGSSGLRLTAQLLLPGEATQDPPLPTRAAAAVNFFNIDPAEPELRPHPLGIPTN

Broadly, the Ki is a measure of affinity in units of concentration, obtained from inhibition or displacement. The low end stands for tighter binding, the high end for weaker binding. Turning to `O=C(/C=C/c1ccc(F)cc1)N[C@H]1CC[C@H](CCN2Cc3ccc(C(F)(F)F)cc3C2)CC1`, the Ki is 398 nM on D(2) dopamine receptor and 10 nM at D(3) dopamine receptor.
For the compound `N#Cc1ccc2c(c1)CN(CC[C@H]1CC[C@H](NC(=O)c3ccnc4ccccc34)CC1)C2`, the Ki at D(2) dopamine receptor was 2510 nM; on D(3) dopamine receptor, 63.1 nM.
For the compound `COc1cccc(/C=C/C(=O)N[C@H]2CC[C@H](CCN3Cc4ccc(C#N)cc4C3)CC2)c1`, the figures for the inhibitory constant (Ki) on D(2) dopamine receptor and on D(3) dopamine receptor were 1000 nM and 10 nM, respectively.
What is called half-life is the time in which the quantity being followed falls by half. Read a high half-life as slow loss. By bioavailability is commonly meant dose-corrected exposure relative to a reference, in per cent. Lower therefore signals poor availability. As usually defined, the pKb is the negative decadic logarithm of the Kb, by convention in mol/L. A lower pKb goes with a high Kb. Regarding `CS(=O)(=O)Oc1ccc2c(c1)CN(CC[C@H]1CC[C@H](NC(=O)/C=C/c3ccc(F)cc3)CC1)C2`, the inhibition constant Ki was 3160 nM in data set [1]; 5010 nM in [2]; greater than 5010 nM in data set [3]; greater than 1000 nM in [4]; greater than 3980 nM in data set [5]; greater than 7940 nM in data set [6]. The inhibitory constant (Ki) was greater than 10000 nM in data set [7]; greater than 5010 nM in data set [11]; 501 nM on D(2) dopamine receptor; 5.01 nM on D(3) dopamine receptor; 1260 nM in [13]. Moreover, the clearance in data set [8] came to 14 mL/min/kg. In addition, the half-life in data set [9] is 5.2 h. This compound had a bioavailability in data set [10] of 77%. Also, in [12], the negative logarithm of the Kb (pKb) was found to be 8.3.
Regarding `O=C(/C=C/c1ccc(F)cc1)N[C@H]1CC[C@H](CCN2Cc3ccc(Br)cc3C2)CC1`, the inhibition constant (Ki) at D(2) dopamine receptor is 100 nM; on D(3) dopamine receptor it was 3.16 nM.
The matching figures for `COc1ccc2c(c1)CN(CC[C@H]1CC[C@H](NC(=O)/C=C/c3ccc(F)cc3)CC1)C2`: 200 nM and 7.94 nM.
The matching figures for `N#Cc1ccc2c(c1)CN(CC[C@H]1CC[C@H](NC(=O)/C=C/c3ccc(F)cc3)CC1)C2`: 631 nM and 12.6 nM.
The matching figures for `N#Cc1ccc2c(c1)CN(CC[C@H]1CC[C@H](NC(=O)c3cc4ccccc4[nH]3)CC1)C2`: 2510 nM and 25.1 nM.
